System: gastric acid secretion
Experiment: Inhibition of pentagastrin-stimulated gastric acid secretion in conscious gastric fistula dogs (intraduodenal administration)
Assay type: in vivo
Conditions: Canis lupus familiaris, read-out: Effect, % inhibition (peak inhibitory effect on gastric acid secretion); for inhibition in vivo at 2 µmol/kg: dose 2 μmol/kg; for inhibition in vivo at 0.5 µmol/kg: dose 0.5 μmol/kg; for inhibition in vivo at 4 µmol/kg: dose 4 μmol/kg; for inhibition in vivo at 20 µmol/kg: dose 20 μmol/kg
Experimental: To determine the gastric acid secretion inhibitory properties, experiments have been performed on conscious dogs provided with gastric fistulas of conventional type and duodenal fistulas, the latter ones used for direct intraduodenal administration of the test compounds. After 18 hours starvation and deprivation of water the dogs were given a subcutaneous infusion of pentagastrin (1-4 nmol/kg, h) lasting for 6-7 hours. Gastric juice was collected in consecutive 30 minutes samples. An aliquot of each sample was titrated with 0.1 N NaOH to pH 7.0 for titrable acid concentration using an automatic titrator and pH-meter (Radiometer, Copenhagen, Denmark). Acid output was calculated as mmol H^+ /60 minutes. The percent inhibition compared to control experiments was calculated for each compound and the peak inhibitory effect is given in Table 2 below. […] In the test prior known compounds were compared with the compounds of the present invention as will be evident from the Table 2 below. The following gastric acid inhibiting effect data were obtained for a number of compounds tested according to the method described.

CC(=O)c1cc2nc([S+]([O-])Cc3cc(C)c(C)cn3)[nH]c2cc1C (stereo not shown) [Example 1, 2-[2-(4,5-di-methyl)pyridylmethylsulfinyl]-(5-acetyl-6-methyl)benzimidazole]
inhibition in vivo at 2 µmol/kg: 90%

CC(=O)c1cc2nc([S+]([O-])Cc3ncc(C)cc3C)[nH]c2cc1C (stereo not shown) [Example 7, 2-[2-(3,5-dimethyl)pyridylmethylsulfinyl]-(5-acetyl-6-methyl)benzimidazole]
inhibition in vivo at 2 µmol/kg: 100%

COc1c(C)cnc(C[S+]([O-])c2nc3cc(Cl)ccc3[nH]2)c1C (stereo not shown) [Example 26]
inhibition in vivo at 0.5 µmol/kg: 25%

CC(=O)c1cc2nc([S+]([O-])Cc3ncc(C)c(C)c3C)[nH]c2cc1C (stereo not shown) [Example 8]
inhibition in vivo at 4 µmol/kg: 100%

COC(=O)c1cc2nc([S+]([O-])Cc3cc(C)c(C)cn3)[nH]c2cc1C (stereo not shown) [Example 2]
inhibition in vivo at 2 µmol/kg: 60%

CCOC(=O)c1ccc2[nH]c([S+]([O-])Cc3ncc(C)c(OC)c3C)nc2c1 (stereo not shown) [Example 28]
inhibition in vivo at 0.5 µmol/kg: 50%

CC(=O)c1cc2nc([S+]([O-])Cc3ccc(C)cn3)[nH]c2cc1C (stereo not shown) [* 5-COCH3,6-CH3, H, H, H, CH3, reference compound]
inhibition in vivo at 8 µmol/kg (dose 8 μmol/kg): 80%

COc1ccc2[nH]c([S+]([O-])Cc3cc(C)ccn3)nc2c1 (stereo not shown) [* 5-OCH3, H, H, H, CH3, H, reference compound]
inhibition in vivo at 20 µmol/kg: 10%

COC(=O)c1ccc2[nH]c([S+]([O-])Cc3ccc(C)cn3)nc2c1 (stereo not shown) [* 5-COOCH3, H, H, H, H, CH3, reference compound]
inhibition in vivo at 20 µmol/kg: 90%

COC(=O)c1cc2nc([S+]([O-])Cc3nccc(OC)c3C)[nH]c2cc1C (stereo not shown) [Example 16]
inhibition in vivo at 0.5 µmol/kg: 65%

COc1c(C)cnc(C[S+]([O-])c2nc3ccccc3[nH]2)c1C (stereo not shown) [Example 25]
inhibition in vivo at 0.5 µmol/kg: 60%

COc1ccnc(C[S+]([O-])c2nc3c(C)cc(C)cc3[nH]2)c1 (stereo not shown) [Example 10]
inhibition in vivo at 2 µmol/kg: 40%

COC(=O)c1cc2nc([S+]([O-])Cc3ncc(C)cc3C)[nH]c2cc1C (stereo not shown) [Example 12]
inhibition in vivo at 2 µmol/kg: 70%

COc1c(C)cnc(C[S+]([O-])c2nc3cc(C)ccc3[nH]2)c1C (stereo not shown) [Example 24]
inhibition in vivo at 0.5 µmol/kg: 50%

COC(=O)c1ccc2[nH]c([S+]([O-])C(C)c3ncc(C)cc3C)nc2c1 (stereo not shown) [Example 29]
inhibition in vivo at 0.5 µmol/kg: 40%

COC(=O)c1ccc2[nH]c([S+]([O-])Cc3cc(C)c(C)cn3)nc2c1 (stereo not shown) [Example 3]
inhibition in vivo at 4 µmol/kg: 100%

COC(=O)c1cc2nc([S+]([O-])Cc3ccc(C)cn3)[nH]c2cc1C (stereo not shown) [* 5-COOCH3,6-CH3, H, H, H, CH3, reference compound]
inhibition in vivo at 4 µmol/kg: 50%

COC(=O)c1cc2nc([S+]([O-])Cc3ncccc3Br)[nH]c2cc1C (stereo not shown) [* 5-COOCH3,6-CH3, H, Br, H, H, reference compound]
inhibition in vivo at 4 µmol/kg: 0%

COC(=O)c1cc2nc([S+]([O-])Cc3cc(OC)ccn3)[nH]c2cc1C (stereo not shown) [Example 14]
inhibition in vivo at 2 µmol/kg: 100%

CC(=O)c1cc2nc([S+]([O-])Cc3nccc(C)c3C)[nH]c2cc1C (stereo not shown) [Example 4]
inhibition in vivo at 1 µmol/kg (dose 1 μmol/kg): 60%

COC(=O)c1cc2nc([S+]([O-])Cc3nccc(C)c3C)[nH]c2cc1C (stereo not shown) [Example 5]
inhibition in vivo at 2 µmol/kg: 90%

CCOc1ccnc(C[S+]([O-])c2nc3cc(C(=O)OC)c(C)cc3[nH]2)c1 (stereo not shown) [Example 15]
inhibition in vivo at 4 µmol/kg: 75%

CCc1ccc(C[S+]([O-])c2nc3cc(C(C)=O)ccc3[nH]2)nc1 (stereo not shown) [* 5-COCH3, H, H, H, H, C2 H5, reference compound]
inhibition in vivo at 20 µmol/kg: 40%

COC(=O)c1cc2nc([S+]([O-])Cc3ncc(C)c(C)c3C)[nH]c2cc1C (stereo not shown) [Example 13]
inhibition in vivo at 4 µmol/kg: 80%

COCCOc1ccnc(C[S+]([O-])c2nc3cc(C)ccc3[nH]2)c1 (stereo not shown) [Example 27]
inhibition in vivo at 0.5 µmol/kg: 30%

COC(=O)c1ccc2[nH]c([S+]([O-])Cc3ncc(C)cc3C)nc2c1 (stereo not shown) [Example 19]
inhibition in vivo at 2 µmol/kg: 60%

Cc1ccc(C[S+]([O-])c2nc3c(C)cc(C)cc3[nH]2)nc1 (stereo not shown) [* 4-CH3,6-CH3, H, H, H, CH3, reference compound]
inhibition in vivo at 12 µmol/kg (dose 12 μmol/kg): 50%

COC(=O)c1cc2nc([S+]([O-])Cc3ncc(C)c(OC)c3C)[nH]c2cc1C (stereo not shown) [Example 17]
inhibition in vivo at 0.5 µmol/kg: 90%

COC(=O)c1ccc2[nH]c([S+]([O-])Cc3ccccn3)nc2c1 (stereo not shown) [* 5-COOCH3, H, H, H, H, H, reference compound]
inhibition in vivo at 20 µmol/kg: 50%

COc1c(C)cnc(C[S+]([O-])c2nc3cc(C(C)=O)ccc3[nH]2)c1C (stereo not shown) [Example 21]
inhibition in vivo at 0.5 µmol/kg: 60%

Cc1cnc(C[S+]([O-])c2nc3c(C)cc(C)cc3[nH]2)c(C)c1 (stereo not shown) [Example 6]
inhibition in vivo at 4 µmol/kg: 40%

COC(=O)c1ccc2[nH]c([S+]([O-])Cc3ncc(C)c(OC)c3C)nc2c1 (stereo not shown) [Example 20]
inhibition in vivo at 0.5 µmol/kg: 65%

COc1ccnc(C[S+]([O-])c2nc3cc(C(C)=O)c(C)cc3[nH]2)c1 (stereo not shown) [Example 9]
inhibition in vivo at 2 µmol/kg: 95%

CC(=O)c1cc2nc([S+]([O-])Cc3cc(C)ccn3)[nH]c2cc1C (stereo not shown) [* 5-COCH3,6-CH3, H, H, CH3, H, reference compound]
inhibition in vivo at 20 µmol/kg: 30%

Cc1ccc(C[S+]([O-])c2nc3cc(C)ccc3[nH]2)nc1 (stereo not shown) [* 5-CH3, H, H, H, H, CH3, reference compound]
inhibition in vivo at 4 µmol/kg: 50%

COc1c(C)cnc(C[S+]([O-])c2nc3cc(C(C)=O)c(C)cc3[nH]2)c1C (stereo not shown) [Example 11]
inhibition in vivo at 0.5 µmol/kg: 70%

COc1ccc2[nH]c([S+]([O-])Cc3ncc(C)c(OC)c3C)nc2c1 (stereo not shown) [Example 23]
inhibition in vivo at 0.5 µmol/kg: 65%

From patent US4255431A, “Gastric acid secretion inhibiting substituted 2-(2-benzimidazolyl)-pyridines, pharmaceutical preparations containing same, and method for inhibiting gastric acid secretion” (priority 1978, dated 1981)
